Laboratory results published in US11851710B2, “Methods and materials for identifying metastatic malignant skin lesions and treating skin cancer” (Mayo Foundation for Medical Education and Research, priority 2014, dated 2023).
One block for each compound: values may come before it.

Key:
Type in all cases: cell-based
ERK = ERK activity (phospho-ERK) by Western blotting after overnight drug incubation; details: WM858 melanoma cells, 5 μM
Protocol: (§1) FIGS. 13A-13P illustrate B-raf^V600E inhibits FAK to promote integrin surface expression. FIG. 13A: shRNAs 841, 102 and NC were induced in WM858 cells by IPTG for 5 days (n=4) followed by RNA quantitation. Genes regulated at 0 vs. 0.05 mM IPTG in 841 and 102 but not NC cells are shown. These were: ITGB3 (orange), FAK (blue). Light orange, light blue: up- or down-regulation, respectively, by either 841 or 102 shRNA. FIG. 13B: WM858 cells were transfected with FAK or EGFP cDNA. Regulated genes, FAK over EGFP cells, are shown in orange (up) or blue (down) (n=4). FIG. 13C: Flow cytometry of NC, 841 and 102 cells (un-induced vs. 0.05 mM IPTG for 5 days). FIG. 13D: Integrin cell surface mean intensities; mean.+−.s.d.; n=3; *, p<0.05; p values, Student's t-test; ns, not significant. FIG. 13E: Visualization of focal adhesions by paxillin staining on micropatterned fibronectin disks. […] FIGS. 13M-13O: FAK/ERK levels in NHM and WM858 after overnight drug incubation (FIG. 13M); quantification of FAK (FIG. 13N) and ERK phosphorylation (FIG. 13O); mean.+−.s.d.; n=4; *, p<0.05; p values, Student's t-test. […]
(§2) PYK2, a FAK-like tyrosine kinase, could not be detected in WM858 cells, irrespective of endogenous FAK levels. WM858 cells carrying control (NC) or FAK-specific shRNAs (841 and 102) were then exposed to IPTG for 5 days, and changes in adhesion gene expression were subsequently quantified by PCR. […]

β3 integrin = assay: Cell surface β3 integrin expression by flow cytometry after overnight drug incubation; details: 5 μM
Protocol: (§3) FIGS. 13A-13P illustrate B-raf^V600E inhibits FAK to promote integrin surface expression. FIG. 13A: shRNAs 841, 102 and NC were induced in WM858 cells by IPTG for 5 days (n=4) followed by RNA quantitation. Genes regulated at 0 vs. 0.05 mM IPTG in 841 and 102 but not NC cells are shown. These were: ITGB3 (orange), FAK (blue). Light orange, light blue: up- or down-regulation, respectively, by either 841 or 102 shRNA. FIG. 13B: WM858 cells were transfected with FAK or EGFP cDNA. Regulated genes, FAK over EGFP cells, are shown in orange (up) or blue (down) (n=4). FIG. 13C: Flow cytometry of NC, 841 and 102 cells (un-induced vs. 0.05 mM IPTG for 5 days). FIG. 13D: Integrin cell surface mean intensities; mean.+−.s.d.; n=3; *, p<0.05; p values, Student's t-test; ns, not significant. FIG. 13E: Visualization of focal adhesions by paxillin staining on micropatterned fibronectin disks. FIGS. 13F and 13G: Proliferation speed in the absence (FIG. 13F) or presence (FIG. 13G) of FAK shRNAs; mean.+−.s.d.; n=8; *, p<0.05; p values, Student's t-test; ns, not significant. FIGS. 13H and 13I: Scratch wound healing in IPTG-induced cells; representative experiment (n=3). FIGS. 13J and 13K: Effect of IPTG-induced FAK knock-down on total (t) and phospho (p)-ERK; mean.+−.s.d.; n=4; *, p<0.05; p values, Student's t-test. FIG. 13L: Cell surface β1 and β3 integrin expression (flow cytometry) in B-raf^V600E and wild-type cells after overnight drug incubation; % expression relative to DMSO is shown. FIGS. 13M-13O: FAK/ERK levels in NHM and WM858 after overnight drug incubation (FIG. 13M); quantification of FAK (FIG. 13N) and ERK phosphorylation (FIG. 13O); mean.+−.s.d.; n=4; *, p<0.05; p values, Student's t-test. FIG. 13P: ERK activity in NC, 841 and 102 cells (0.05 mM IPTG for 5 days) after overnight drug incubation.
Isopropyl β-D-1-thiogalactopyranoside (IPTG), 4′,6-Diamidino-2-phenylindole dihydrochloridemitomycin (DAPI), blebbistatin and PF-573228 were purchased from Sigma-Aldrich. Dabrafenib (GSK2118436) was purchased from Selleckchem. FAK antibody (06-543) was from EMD MILLIPORE®. FAK pY397 (44624G) antibody was from Life Technologies. Total ERK (9102) and phospho-ERK (4370) antibodies were from Cell Signaling. Paxillin (610051), ITGB3 (555754), ITGB1 (555443) and mouse IgG1 kappa (555749) antibodies were from BD Transduction Labs. Drugs were used at 5 μM final concentration. EGFP control cDNA was from (Lonza). […]
as §2

β1 integrin = assay: Cell surface β1 integrin expression by flow cytometry after overnight drug incubation; details: 5 μM
Protocol: as §3
Isopropyl β-D-1-thiogalactopyranoside (IPTG), 4′,6-Diamidino-2-phenylindole dihydrochloridemitomycin (DAPI), blebbistatin and PF-573228 were purchased from Sigma-Aldrich. Dabrafenib (GSK2118436) was purchased from Selleckchem. FAK antibody (06-543) was from EMD MILLIPORE®. FAK pY397 (44624G) antibody was from Life Technologies. Total ERK (9102) and phospho-ERK (4370) antibodies were from Cell Signaling. Paxillin (610051), ITGB3 (555754), ITGB1 (555443) and mouse IgG1 kappa (555749) antibodies were from BD Transduction Labs. Drugs were used at 5 μM final concentration. EGFP control cDNA was from (Lonza). FAK cDNA was obtained from A. Huttenlocher, Addgene plasmid number 35039 (Chan et al., J. Biol. Chem., 285:11418-26 (2010)).
PYK2, a FAK-like tyrosine kinase, could not be detected in WM858 cells, irrespective of endogenous FAK levels. WM858 cells carrying control (NC) or FAK-specific shRNAs (841 and 102) were then exposed to IPTG for 5 days, and changes in adhesion gene expression were subsequently quantified by PCR. […] Moreover, Dabrafenib-induced blockage of ERK activity could be partially reversed by a complete FAK knock-down in 102 cells (FIG. 13P).

FAK = target: T1, FAK (Homo sapiens, UniProt Q05397); assay: FAK Y397 auto-phosphorylation by Western blotting after overnight drug incubation; details: melanoma cells, 5 μM
T1 construct: FAK/ERK levels in NHM and WM858 after overnight drug incubation; endogenous in cells; host or cells: WM858 melanoma cells and NHM
Protocol: as §1, §2

T1 sequence (Q05397 whole entry): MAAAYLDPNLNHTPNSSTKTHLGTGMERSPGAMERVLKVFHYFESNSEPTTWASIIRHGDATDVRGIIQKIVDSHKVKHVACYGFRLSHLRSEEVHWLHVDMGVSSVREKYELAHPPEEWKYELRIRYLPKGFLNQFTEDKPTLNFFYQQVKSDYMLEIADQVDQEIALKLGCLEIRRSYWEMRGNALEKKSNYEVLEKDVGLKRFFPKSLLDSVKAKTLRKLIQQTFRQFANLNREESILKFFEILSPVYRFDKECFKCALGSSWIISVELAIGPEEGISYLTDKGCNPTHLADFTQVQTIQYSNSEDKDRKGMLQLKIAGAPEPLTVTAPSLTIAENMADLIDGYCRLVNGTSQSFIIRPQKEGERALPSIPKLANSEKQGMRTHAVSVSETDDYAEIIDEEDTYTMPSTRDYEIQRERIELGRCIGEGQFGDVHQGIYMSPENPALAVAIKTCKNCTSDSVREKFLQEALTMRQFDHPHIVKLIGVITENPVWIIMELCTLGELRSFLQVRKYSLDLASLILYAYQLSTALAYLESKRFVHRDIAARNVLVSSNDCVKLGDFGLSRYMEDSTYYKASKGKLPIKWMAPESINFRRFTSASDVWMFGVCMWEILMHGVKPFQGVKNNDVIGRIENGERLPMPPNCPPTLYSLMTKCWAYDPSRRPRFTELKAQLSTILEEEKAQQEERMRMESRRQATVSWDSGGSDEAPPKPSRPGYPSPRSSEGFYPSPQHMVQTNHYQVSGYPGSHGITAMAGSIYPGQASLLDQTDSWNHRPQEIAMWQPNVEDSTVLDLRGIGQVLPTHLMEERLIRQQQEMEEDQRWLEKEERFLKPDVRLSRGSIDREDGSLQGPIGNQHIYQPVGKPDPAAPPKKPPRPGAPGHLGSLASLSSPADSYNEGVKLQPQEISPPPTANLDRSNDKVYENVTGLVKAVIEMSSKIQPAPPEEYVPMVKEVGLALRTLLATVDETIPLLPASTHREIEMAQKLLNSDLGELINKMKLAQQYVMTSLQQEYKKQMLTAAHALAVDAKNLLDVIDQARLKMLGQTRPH

SMILES: CS(=O)(=O)c1cccc(CNc2nc(Nc3ccc4c(c3)CCC(=O)N4)ncc2C(F)(F)F)c1 [PF-573228]
- ERK activity (ERK): induce
- β3 integrin surface levels (β3 integrin; B-rafV600E melanoma cells): induced
- β1 integrin surface levels (β1 integrin; B-raf wild-type melanoma cells): not
- β1 integrin surface levels (β1 integrin; B-rafV600E melanoma cells): induced

- FAK tyrosine (Y) 397 auto-phosphorylation (FAK): increased
SMILES: CC(C)(C)c1nc(-c2cccc(NS(=O)(=O)c3c(F)cccc3F)c2F)c(-c2ccnc(N)n2)s1 [Dabrafenib]
- ERK activity (ERK): blockage
- integrin levels (cell surface β3) (β3 integrin; NHM): not
- integrin levels (cell surface β3) (β3 integrin; most melanoma cells): reduced
- integrin levels (cell surface β1) (β1 integrin; NHM): not
- integrin levels (cell surface β1) (β1 integrin; most melanoma cells): reduced
